Here are results for 24 compounds from BindingDB's records for doi:10.1021/jm010087e (The University of Western Australia, 2001).

A short description of the experiment: Inhibitory activity against clostridium histolyticum collagenase.

With `CC(C(=O)NO)N(Cc1ccccc1[N+](=O)[O-])C(=O)Nc1cccc2ccccc12` (centres undefined) [N-Hydroxy-2-[3-naphthalen-1-yl-1-(2-nitro-benzyl)-ureido]-propionamide], the Ki was 10 nM.

As for `CC(C(=O)NO)N(Cc1ccccc1[N+](=O)[O-])S(=O)(=O)c1ccccc1[N+](=O)[O-]` (centres undefined) [N-Hydroxy-2-[(2-nitro-benzenesulfonyl)-(2-nitro-benzyl)-amino]-propionamide], the Ki amounted to 11 nM.

The compound `Cc1cc(C)c(S(=O)(=O)N(Cc2ccccc2[N+](=O)[O-])C(C)C(=O)NO)c(C)c1` (centres undefined) [N-Hydroxy-2-[(2-nitro-benzyl)-(2,4,6-trimethyl-benzenesulfonyl)-amino]-propionamide] returned a Ki of 21 nM. Compared with the last compound, the Ki is about 1.9-fold higher.

Turning to `CC(C(=O)NO)N(Cc1ccccc1[N+](=O)[O-])Sc1ccccc1[N+](=O)[O-]` (centres undefined) [N-Hydroxy-2-[(2-nitro-benzyl)-(2-nitro-phenylsulfanyl)-amino]-propionamide], the affinity, expressed as Ki, was 12 nM.

In turn, `CC(C(=O)NO)N(Cc1ccccc1[N+](=O)[O-])S(=O)(=O)c1cccc(C(F)(F)F)c1` (centres undefined) [N-Hydroxy-2-[(2-nitro-benzyl)-(3-trifluoromethyl-benzenesulfonyl)-amino]-propionamide] came in with an inhibition constant Ki of 5 nM.

Compound `CC(C(=O)NO)N(Cc1ccccc1[N+](=O)[O-])Sc1ccc([N+](=O)[O-])cc1` (centres undefined) [N-Hydroxy-2-[(2-nitro-benzyl)-(4-nitro-phenylsulfanyl)-amino]-propionamide] yielded an inhibitory constant (Ki) of 13 nM. This Ki is about 2.6-fold higher than that of the compound before.

On to `CC(C(=O)NO)N(Cc1ccccc1[N+](=O)[O-])S(=O)(=O)C(F)(F)C(F)(F)C(F)(F)C(F)(F)F` (centres undefined) [N-Hydroxy-2-[(2-nitro-benzyl)-(nonafluorobutane-1-sulfonyl)-amino]-propionamide], for which affinity was put at a Ki of 10 nM. The Ki values of the last two compounds are within 1.5-fold of each other.

`CC(C(=O)NO)N(Cc1ccccc1[N+](=O)[O-])S(=O)(=O)c1cccc2cccnc12` (centres undefined) [N-Hydroxy-2-[(2-nitro-benzyl)-(quinoline-8-sulfonyl)-amino]-propionamide] registered an inhibition constant Ki of 9 nM. This Ki and that of the compound before are within 1.5-fold of each other.

Take `CC(C(=O)NO)N(Cc1ccccc1[N+](=O)[O-])S(=O)(=O)c1cccs1` (centres undefined) [N-Hydroxy-2-[(2-nitro-benzyl)-(thiophene-2-sulfonyl)-amino]-propionamide]: the affinity, expressed as Ki, was 10 nM.

`Cc1ccc(S(=O)(=O)N(Cc2ccccc2[N+](=O)[O-])C(C)C(=O)NO)cc1` (centres undefined) [N-Hydroxy-2-[(2-nitro-benzyl)-(toluene-4-sulfonyl)-amino]-propionamide] showed a Ki of 41 nM.

Compound `CC(C(=O)NO)N(Cc1ccccc1[N+](=O)[O-])S(=O)(=O)Cc1ccccc1` (centres undefined) [N-Hydroxy-2-[(2-nitro-benzyl)-phenylmethanesulfonyl-amino]-propionamide] had a Ki of 55 nM. The Ki values of the last two compounds are within 1.5-fold of each other.

As to `CC(C(=O)NO)N(Cc1ccccc1[N+](=O)[O-])S(=O)(=O)C(Cl)(Cl)Cl` (centres undefined) [N-Hydroxy-2-[(2-nitro-benzyl)-trichloromethanesulfonyl-amino]-propionamide], the Ki came to 64 nM.

As for `CC(C(=O)NO)N(Cc1ccccc1[N+](=O)[O-])S(=O)(=O)C(F)(F)F` (centres undefined) [N-Hydroxy-2-[(2-nitro-benzyl)-trifluoromethanesulfonyl-amino]-propionamide], the Ki stood at 70 nM.

Turning to `CC(C(=O)NO)N(Cc1ccccc1[N+](=O)[O-])S(=O)(=O)c1cccc([N+](=O)[O-])c1` (centres undefined) [N-Hydroxy-2-[(3-nitro-benzenesulfonyl)-(2-nitro-benzyl)-amino]-propionamide], the affinity corresponds to a Ki of 10 nM. This Ki lies about 7-fold lower than the previous one.

In turn, `CC(C(=O)NO)N(Cc1ccccc1[N+](=O)[O-])S(=O)(=O)c1ccc(I)cc1` (centres undefined) [N-Hydroxy-2-[(4-iodo-benzenesulfonyl)-(2-nitro-benzyl)-amino]-propionamide] displayed a Ki of 34 nM.

`CC(C(=O)NO)N(Cc1ccccc1[N+](=O)[O-])S(=O)(=O)c1ccc([N+](=O)[O-])cc1` (centres undefined) [N-Hydroxy-2-[(4-nitro-benzenesulfonyl)-(2-nitro-benzyl)-amino]-propionamide] registered a Ki of 13 nM.

With `CC(C(=O)NO)N(Cc1ccccc1[N+](=O)[O-])S(=O)(=O)c1cccc2ccccc12` (centres undefined) [N-Hydroxy-2-[(naphthalene-1-sulfonyl)-(2-nitro-benzyl)-amino]-propionamide], the inhibition constant Ki worked out at 6 nM.

`CC(C(=O)NO)N(Cc1ccccc1[N+](=O)[O-])S(=O)(=O)c1ccc2ccccc2c1` (centres undefined) [N-Hydroxy-2-[(naphthalene-2-sulfonyl)-(2-nitro-benzyl)-amino]-propionamide] gave a Ki of 8 nM.

`CC(C(=O)NO)N(Cc1ccccc1[N+](=O)[O-])S(C)(=O)=O` (centres undefined) [N-Hydroxy-2-[methanesulfonyl-(2-nitro-benzyl)-amino]-propionamide] yielded a Ki of 86 nM.

For the compound `CC(C(=O)NO)N(Cc1ccccc1[N+](=O)[O-])C(=O)NS(=O)(=O)c1ccccc1` (centres undefined) [N-hydroxy-2-((2-nitrobenzyl){[(phenylsulfonyl)amino]carbonyl}amino)propanamide], the Ki was 12 nM.

The compound `Cc1ccccc1S(=O)(=O)NC(=O)N(Cc1ccccc1[N+](=O)[O-])C(C)C(=O)NO` (centres undefined) [N-hydroxy-2-[({[(2-methylphenyl)sulfonyl]amino}carbonyl)(2-nitrobenzyl)amino]propanamide] yielded a Ki of 9 nM.

`CC(C(=O)NO)N(Cc1ccccc1[N+](=O)[O-])S(=O)(=O)c1cccc(NC(=O)OC(C)(C)C)c1` (centres undefined) [{3-[(1-Hydroxycarbamoyl-ethyl)-(2-nitro-benzyl)-sulfamoyl]-phenyl}-carbamic acid tert-butyl ester] returned a Ki of 8 nM.

Turning to `CC(C(=O)NO)N(Cc1ccccc1[N+](=O)[O-])S(=O)(=O)c1ccc(NC(=O)OC(C)(C)C)cc1` (centres undefined) [{4-[(1-Hydroxycarbamoyl-ethyl)-(2-nitro-benzyl)-sulfamoyl]-phenyl}-carbamic acid tert-butyl ester], the Ki was found to be 9 nM.

As to `COc1ccc(S(=O)(=O)N(Cc2ccccc2[N+](=O)[O-])C(C)C(=O)NO)cc1NC(=O)OC(C)(C)C` (centres undefined) [{5-[(1-Hydroxycarbamoyl-ethyl)-(2-nitro-benzyl)-sulfamoyl]-2-methoxy-phenyl}-carbamic acid tert-butyl ester], the affinity, expressed as Ki, was 9 nM.

The term Ki denotes the dissociation constant of the complex between target and ligand, obtained from inhibition or displacement. Lower therefore signals higher affinity.
